# Patent publication US20240318145A1, “STRUCTURALLY COMPLETE ORGANOIDS” (Children's Hospital Medical Center, priority 2021, published 2024)
# “Also recorded” adds a separate entry of the source.
# B1: Noggin: BMP inhibitor Noggin (NOG) (protein, UniProt Q13253 28-232, looked up)
# Noggin: QHYLHIRPAPSDNLPLVDLIEHPDPIFDPKEKDLNETLLRSLLGGHYDPGFMATSPPEDRPGGGGGAAGGAEDLAELDQLLRQRPSGAMPSEIKGLEFSEGLAQGKKQRLSKKLRRKLQMWLWSQTFCPVLYAWNDLGSRFWPRYVKVGSCFSKRSCSVPEGMVCKPSKSVHLTVLRWRCQRRGGQRCGWIPIQYPIISECKCSC
# What was measured:
# Assay type in all cases: cell-based, human
# muscarinic receptor = experiment: Ex vivo isometric force contraction of muscle strips from transplanted hAGO +SM +ENS in an organ bath
# ENS = system: ENS
# ENCCs = experiment: Expression of BMP ligands in ENCC culture (qRT-PCR); settings: ENCC culture treated with NOG; FIG. 15B
# Procedure: (§1) One candidate pathway was BMP signaling, which is known to promote posterior fate in the gastrointestinal junction. Analysis of ENCCs show high levels of expression of both BMP4 and BMP7 (FIG. 15A). To functionally investigate if BMP activity might mediate the ability of ENCCs to promote a Brunner's gland fate, ENCCs were recombined with hAGO at day 6 and then organoids were cultured with the BMP inhibitor Noggin (NOG) from day 6-9, along with RA, which is a component of the normal hAGO protocol. None of the grafts (0 out of 27) had Brunner's gland epithelium following 3 days of Noggin treatment as compared to hAGOs +ENCCs added at day 9 not treated with NOG (5 out of 21 grafts). […]
# RNA isolation and quantitative real-time PCR (qRT-PCR): Spheroids and organoids were harvested in RAI Lysis Buffer and β-mercapethanol and stored at −80° C. until total RNA was isolated using NucleoSpin RNA Isolation Kit (Macherey-Nagel) according to manufacturers' instructions. Complementary DNA (cDNA) was reverse transcribed from 116 ng of RNA using a SuperScript VILO cDNA Synthesis Kit (Invitrogen). qRT-PCR was performed using a QuantiTect SYBR Green PCR Kit (Qiagen) in MicroAmp EnduraPlate Optical 96-Well Fast Reaction Plates (Applied Biosystems) and run on a QuantStudio 6 Real-Time PCR Detection System (Applied Biosystems). […]
# hAGOs +ENCCs = experiment: Brunner's gland epithelium in grafts of hAGOs recombined with ENCCs and transplanted into mice; settings: ENCCs recombined at day 6, Noggin day 6-9 (3 days) along with RA; compared with 5 out of 21 grafts not treated
# Procedure: as §1
# Recombination and additional spheroid patterning: Single cell suspensions of mesenchymal cells and ENCCs were counted and added to foregut spheroids at an approximate ratio of 1,000 ENCCs and 2,500 mesenchyme cells per spheroid. […]
# In vivo transplantation of hAGOs and hFGOs: hAGO, hFGO, hAGO +ENS, hAGO +SM +ENS, hAGO +SM +ENS, and hFGO +SM +ENS were all ectopically transplanted into the kidney capsule of NSG mice. […] Engrafted organoids were harvested 6-15 weeks after transplantation and analyzed for neuroglial, epithelial, and mesenchymal maturation.
molecule,measurement,setting,value
CN1[C@@H]2C[C@@H](OC(=O)[C@H](CO)c3ccccc3)C[C@H]1[C@@H]1O[C@@H]12 [scopolamine],reversal of contractions / muscle relaxation,muscarinic receptor,contractions were able to be reversed and muscle relaxation induced
"CC(C[N+](C)(C)C)OC(N)=O (stereo not drawn) [bethanechol, Carbamyl-β-methylcholine chloride]","contractility (smooth muscle force contraction), dose response","muscarinic receptor; 1 nM to 10 mM at 2 min intervals, tissue strips of transplanted hAGO +SM +ENS, FIG. 4C",increased in response to bethanechol in a dose-dependent manner
same,normalized mean maximal tension,"muscarinic receptor; bethanechol dose response before scopolamine, normalized to muscle strip mass, n=3, FIG. 4D",236.9 g/g
NC1=N[C@H](O)[C@H]2[C@H]3O[C@]4(O)O[C@@H]([C@@H](O)[C@@]2(N1)[C@@H]4O)[C@]3(O)CO [tetrodotoxin],EFS-stimulated contractile activity (change in AUC),ENS,abolished the ability of EFS to stimulate contractile activity; also recorded: abrogating EFS-mediated contractions
B1,levels of BMP4 and BMP7 expression,ENCCs,significantly reduced levels of both BMP4 and 7
same,grafts with Brunner's gland epithelium,hAGOs +ENCCs,0 out of 27
